Data as given in PMC8191317, “Structural and functional analysis of lignostilbene dioxygenases from Sphingobium sp. SYK-6” (The Journal of Biological Chemistry, 2021).

How the values were obtained:
Type in all cases: biochemical
LSD4 = target: T1, LSD4 (Sphingobium sp. SYK-6, UniProt Z9AM74RXJ0); test: O2 electrode (oxygraph) inhibition kinetics; conditions: read-out: Kic
T1 construct: residues 2-489 modelled; Fe2+ enzyme, Co-LSD4 for complexes
T1 sequence (Z9AM74RXJ0 1-489): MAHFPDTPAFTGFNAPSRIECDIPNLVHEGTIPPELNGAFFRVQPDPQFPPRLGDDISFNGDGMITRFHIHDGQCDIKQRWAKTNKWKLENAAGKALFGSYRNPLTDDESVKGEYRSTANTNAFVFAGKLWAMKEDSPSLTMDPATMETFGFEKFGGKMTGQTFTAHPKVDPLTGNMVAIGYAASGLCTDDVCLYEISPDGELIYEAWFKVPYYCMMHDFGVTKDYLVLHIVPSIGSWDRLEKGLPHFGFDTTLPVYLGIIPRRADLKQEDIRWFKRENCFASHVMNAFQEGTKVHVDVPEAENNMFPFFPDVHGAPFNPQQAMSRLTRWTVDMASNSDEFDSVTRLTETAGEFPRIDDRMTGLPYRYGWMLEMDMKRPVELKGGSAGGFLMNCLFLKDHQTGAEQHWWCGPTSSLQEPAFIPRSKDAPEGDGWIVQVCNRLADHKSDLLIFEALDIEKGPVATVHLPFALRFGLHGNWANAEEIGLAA

LSD7 = target: T2, LSD7 (Sphingobium sp. SYK-6, UniProt G2INY0); test: oxygraph O2 consumption, E. coli lysate; conditions: 100 μM substrate
T2 construct: gene SLG_09440; pET41b, E. coli BL21(DE3) lysate
T2 sequence (G2INY0 1-483): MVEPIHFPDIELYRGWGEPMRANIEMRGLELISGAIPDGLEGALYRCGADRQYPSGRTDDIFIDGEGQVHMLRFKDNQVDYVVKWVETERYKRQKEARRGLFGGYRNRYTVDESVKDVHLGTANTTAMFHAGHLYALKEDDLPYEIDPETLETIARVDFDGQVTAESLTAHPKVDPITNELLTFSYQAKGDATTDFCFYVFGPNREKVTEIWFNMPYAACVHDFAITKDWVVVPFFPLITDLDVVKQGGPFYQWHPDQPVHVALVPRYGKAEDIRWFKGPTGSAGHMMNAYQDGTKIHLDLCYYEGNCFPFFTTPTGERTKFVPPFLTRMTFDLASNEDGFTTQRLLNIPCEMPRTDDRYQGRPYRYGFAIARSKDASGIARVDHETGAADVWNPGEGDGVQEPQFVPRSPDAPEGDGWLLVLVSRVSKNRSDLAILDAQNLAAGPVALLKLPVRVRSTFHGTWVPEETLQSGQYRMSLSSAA

LSD5 = target: T3, LSD5 (Sphingobium sp. SYK-6, UniProt G2IKS0); test: oxygraph O2 consumption, E. coli lysate; conditions: 100 μM substrate
T3 construct: gene SLG_27970; pET41b, E. coli BL21(DE3) lysate
T3 sequence (G2IKS0 1-492): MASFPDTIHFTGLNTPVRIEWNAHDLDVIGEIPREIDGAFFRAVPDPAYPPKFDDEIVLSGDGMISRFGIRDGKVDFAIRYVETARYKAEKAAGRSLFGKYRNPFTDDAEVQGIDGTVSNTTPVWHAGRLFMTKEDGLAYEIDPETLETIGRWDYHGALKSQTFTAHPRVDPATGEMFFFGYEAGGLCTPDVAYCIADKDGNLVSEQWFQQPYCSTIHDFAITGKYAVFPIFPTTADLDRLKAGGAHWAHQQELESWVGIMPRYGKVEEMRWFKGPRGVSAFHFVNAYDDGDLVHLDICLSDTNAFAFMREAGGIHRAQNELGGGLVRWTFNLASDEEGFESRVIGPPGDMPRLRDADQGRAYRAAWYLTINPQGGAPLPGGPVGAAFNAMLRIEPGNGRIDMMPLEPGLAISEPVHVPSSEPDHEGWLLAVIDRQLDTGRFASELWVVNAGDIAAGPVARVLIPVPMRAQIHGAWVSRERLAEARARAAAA

LSD3 = target: T4, LSD3 (Sphingobium sp. SYK-6, UniProt G2IPX7); test: oxygraph O2 consumption, E. coli lysate; conditions: 100 μM substrate
T4 construct: gene SLG_11300; pET41b, E. coli BL21(DE3) lysate
T4 sequence (G2IPX7 1-491): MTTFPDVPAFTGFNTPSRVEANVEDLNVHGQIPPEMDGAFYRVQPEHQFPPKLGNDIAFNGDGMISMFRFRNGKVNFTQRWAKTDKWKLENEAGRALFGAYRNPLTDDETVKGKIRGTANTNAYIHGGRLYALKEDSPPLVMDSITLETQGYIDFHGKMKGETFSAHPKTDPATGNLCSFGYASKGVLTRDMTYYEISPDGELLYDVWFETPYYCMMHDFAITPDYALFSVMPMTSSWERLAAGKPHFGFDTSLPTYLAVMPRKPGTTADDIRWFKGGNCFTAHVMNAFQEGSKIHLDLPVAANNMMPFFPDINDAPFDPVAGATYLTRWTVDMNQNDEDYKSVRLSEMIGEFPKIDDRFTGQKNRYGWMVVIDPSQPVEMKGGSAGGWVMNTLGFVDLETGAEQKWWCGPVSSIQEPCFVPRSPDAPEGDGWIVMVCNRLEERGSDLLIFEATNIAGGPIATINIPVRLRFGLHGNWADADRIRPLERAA

LSD6 = target: T5, LSD6 (Sphingomonas paucimobilis, UniProt Q8RQW2); test: oxygraph O2 consumption, E. coli lysate; conditions: 100 μM substrate
T5 construct: gene lsdA; pET41b, E. coli BL21(DE3) lysate
T5 sequence (Q8RQW2 1-491): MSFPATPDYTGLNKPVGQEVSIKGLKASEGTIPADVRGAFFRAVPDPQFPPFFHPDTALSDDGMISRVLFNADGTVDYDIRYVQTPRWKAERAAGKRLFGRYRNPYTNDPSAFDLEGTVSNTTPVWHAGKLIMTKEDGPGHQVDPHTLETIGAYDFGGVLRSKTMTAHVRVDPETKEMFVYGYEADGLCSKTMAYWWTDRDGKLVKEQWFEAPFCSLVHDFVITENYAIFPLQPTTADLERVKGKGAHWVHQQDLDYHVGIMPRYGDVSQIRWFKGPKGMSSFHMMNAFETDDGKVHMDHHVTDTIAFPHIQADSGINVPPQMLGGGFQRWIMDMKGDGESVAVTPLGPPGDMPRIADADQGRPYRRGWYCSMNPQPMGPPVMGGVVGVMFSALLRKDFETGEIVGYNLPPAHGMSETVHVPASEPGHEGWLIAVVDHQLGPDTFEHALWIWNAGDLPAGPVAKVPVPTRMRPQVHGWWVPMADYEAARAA

LSD1 = target: T6, LSD1 (Sphingobium sp. SYK-6, UniProt G2IR63); test: oxygraph O2 consumption, E. coli lysate; conditions: 100 μM substrate
T6 construct: gene SLG_37540; pET41b, E. coli BL21(DE3) lysate, co-produced with GroEL/GroES
T6 sequence (G2IR63 1-486): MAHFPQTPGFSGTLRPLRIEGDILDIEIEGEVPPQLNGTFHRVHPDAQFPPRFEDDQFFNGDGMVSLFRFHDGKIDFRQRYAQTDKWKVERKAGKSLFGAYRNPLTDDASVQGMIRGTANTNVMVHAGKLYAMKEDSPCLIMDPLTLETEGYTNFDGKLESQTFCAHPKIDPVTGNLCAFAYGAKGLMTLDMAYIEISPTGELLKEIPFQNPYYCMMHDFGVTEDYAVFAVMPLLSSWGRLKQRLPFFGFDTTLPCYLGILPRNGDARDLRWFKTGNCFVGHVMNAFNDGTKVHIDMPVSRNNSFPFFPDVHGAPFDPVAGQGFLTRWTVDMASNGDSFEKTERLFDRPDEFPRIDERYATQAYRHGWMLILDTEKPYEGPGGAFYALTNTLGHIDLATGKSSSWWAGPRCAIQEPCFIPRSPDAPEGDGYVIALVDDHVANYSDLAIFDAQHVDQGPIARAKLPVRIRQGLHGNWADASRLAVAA

LSD2 = target: T7, LSD2 (Sphingobium sp. SYK-6, UniProt G2IQG5); test: oxygraph O2 consumption, E. coli lysate; conditions: 100 μM substrate
T7 construct: gene SLG_36640; pET41b, E. coli BL21(DE3) lysate, co-produced with GroEL/GroES
T7 sequence (G2IQG5 1-490): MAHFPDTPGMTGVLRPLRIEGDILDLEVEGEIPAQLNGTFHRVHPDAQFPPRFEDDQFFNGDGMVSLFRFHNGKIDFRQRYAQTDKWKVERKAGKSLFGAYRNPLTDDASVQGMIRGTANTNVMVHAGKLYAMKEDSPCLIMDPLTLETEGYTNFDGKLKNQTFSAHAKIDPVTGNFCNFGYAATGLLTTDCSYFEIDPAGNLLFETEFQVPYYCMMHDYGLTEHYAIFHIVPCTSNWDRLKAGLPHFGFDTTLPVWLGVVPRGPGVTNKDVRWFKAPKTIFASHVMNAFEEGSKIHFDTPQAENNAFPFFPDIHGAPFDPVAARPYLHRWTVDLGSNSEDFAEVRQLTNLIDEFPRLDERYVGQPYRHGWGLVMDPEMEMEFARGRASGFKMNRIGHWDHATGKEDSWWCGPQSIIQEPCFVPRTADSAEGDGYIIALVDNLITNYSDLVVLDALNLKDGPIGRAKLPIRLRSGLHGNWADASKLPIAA

| Ki (LSD4) [µM] | SMILES | relative activity (LSD7) | relative activity (LSD5) | relative activity (LSD3) | relative activity (LSD6) | relative activity (LSD1) | relative activity (LSD2) |
| --- | --- | --- | --- | --- | --- | --- | --- |
| 30 ± 8 | COc1cc(C=O)ccc1O [vanillin] |  |  |  |  |  |  |
|  | COc1cc(/C=C/c2ccc(O)c(OC)c2)ccc1O [compound 2, lignostilbene] | cell lysates containing LSD1, LSD5, LSD6, or LSD7 preferentially cleaved lignostilbene over DCA-S | cell lysates containing LSD1, LSD5, LSD6, or LSD7 preferentially cleaved lignostilbene over DCA-S | The seven soluble enzymes all cleaved lignostilbene | cell lysates containing LSD1, LSD5, LSD6, or LSD7 preferentially cleaved lignostilbene over DCA-S | cell lysates containing LSD1, LSD5, LSD6, or LSD7 preferentially cleaved lignostilbene over DCA-S | The seven soluble enzymes all cleaved lignostilbene |
